Source: patent US20040176431A1, “Antiproliferative 2-(sulfo-phenyl)-aminothiazole derivatives and pharmaceutical compositions, and methods for their use” (Pfizer, Inc., priority 2003, published 2004)

Biological target: T1, CDK4/cyclin D3 (Homo sapiens, UniProt P11802)
T1 construct: made in house; host or cells: insect cells (baculovirus co-infection)
Test: Inhibition of CDK4/Cyclin D retinoblastoma kinase activity
Format: biochemical
Details: for inhibition at 0.1 µM: read-out: % Inhib CDK4/D @ 0.1 μM; for inhibition at 1 µM: read-out: % Inhib CDK4/D @ 1 μM; for inhibition at 0.03 µM: read-out: % Inhib CDK4/D @ 0.03
Method: Cyclin-dependent kinase activity was measured by quantifying the enzyme-catalyzed, time-dependent incorporation of radioactive phosphate from [^32P]ATP or [^33P]ATP into a protein substrate. Unless noted otherwise, assays were performed in 96-well plates in a total volume of 50 μL, in the presence of 10 mM HEPES (N-[2-hydroxyethyl]piperazine-N′-[2-ethanesulfonic acid]) (pH 7.4), 10 mM MgCl2, 25 μM adenosine triphosphate (ATP), 1 mg/mL ovalbumin, 5 μg/mL leupeptin, 1 mM dithiothreitol, 10 mM β-glycerophosphate, 0.1 mM sodium vanadate, 1 mM sodium fluoride, 2.5 mM ethylene glycol-bis(β-aminoethyl ether)-N,N,N′N′-tetraacetic acid (EGTA), 2% (v/v) dimethylsulfoxide, and 0.03-0.4 μCi [^32/33P]ATP per reaction. Reactions were initiated with enzyme, incubated at 30° C., and terminated after 20 minutes by the addition of ethylenediaminetetraacetic acid (EDTA) to 250 mM. The phosphorylated substrate was then captured on a nitrocellulose or phosphocellulose membrane using a 96-well filtration manifold, and unincorporated radioactivity was removed by repeated washing with 0.85% phosphoric acid. Radioactivity was quantified by exposing the dried membranes to a phosphorimager.
Inhibition was measured relative to control wells that contained all reaction components including 2% (v/v) DMSO but no compound, after subtraction of background radioactivity measured in the absence of enzyme. Apparent Ki values of discrete compounds were measured by assaying enzyme activity in the presence of different inhibitor compound concentrations and subtracting the background radioactivity measured in the absence of enzyme. The kinetic parameters (kcat, Km for ATP) were measured for each enzyme under the usual assay conditions by determining the dependence of initial rates on ATP concentration. Inhibition data were fit to an equation for competitive inhibition using Kaleidagraph (Synergy Software), or were fit to an equation for competitive tight-binding inhibition using the software KineTic (BioKin, Ltd.).
A complex of human CDK4 and genetically truncated (1-264) cyclin D3 was purified using traditional biochemical chromatographic techniques from insect cells that had been co-infected with the corresponding baculovirus expression vectors (see e.g., Meijer and Kim, “Chemical Inhibitors of Cyclin-Dependent Kinases,” Methods in Enzymol., 283, 113-128 (1997)). The enzyme complex (5 nM) was assayed with 0.3-0.5 μg of purified recombinant retinoblastoma protein fragment (Rb) as a substrate. The engineered Rb fragment (residues 386-928 of the native retinoblastoma protein; 62.3 kDa) contains the majority of the phosphorylation sites found in the native 106-kDa protein, as well as a tag of six histidine residues for ease of purification. Phosphorylated Rb substrate was captured by microfiltration on a nitrocellulose membrane and quantified using a phosphorimager as described above. For measurement of tight-binding inhibitors, the assay duration was extended to 60 minutes, during which the time-dependence of product formation was linear and initial rate conditions were met.

[1] = test compound at 1 μM (head line shifted: 'mM' printed beside 'Structure')
[2] = test compound at 0.03 (unit cell empty, head line shifted; μM)

T1 sequence (P11802 whole entry): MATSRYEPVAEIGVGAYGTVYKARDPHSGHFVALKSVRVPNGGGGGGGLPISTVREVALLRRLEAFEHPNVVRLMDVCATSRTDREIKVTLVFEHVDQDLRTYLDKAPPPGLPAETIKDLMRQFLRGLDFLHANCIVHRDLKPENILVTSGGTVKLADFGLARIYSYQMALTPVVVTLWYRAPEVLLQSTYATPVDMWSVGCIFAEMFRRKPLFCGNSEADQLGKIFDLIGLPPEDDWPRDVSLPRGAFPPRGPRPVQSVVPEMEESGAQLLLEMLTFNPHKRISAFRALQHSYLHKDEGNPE
T1 sequence (P30281 1-264 partner limits assumed): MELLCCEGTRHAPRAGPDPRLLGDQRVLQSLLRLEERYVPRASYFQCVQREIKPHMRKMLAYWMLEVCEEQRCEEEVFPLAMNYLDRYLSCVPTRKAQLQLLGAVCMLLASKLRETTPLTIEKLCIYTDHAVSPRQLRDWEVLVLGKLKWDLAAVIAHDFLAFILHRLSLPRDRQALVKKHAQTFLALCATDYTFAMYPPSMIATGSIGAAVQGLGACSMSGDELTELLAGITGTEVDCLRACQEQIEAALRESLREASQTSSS

Row | Compound | inhibition at 0.1 µM (test compound at 0.1 μM) | inhibition at 1 µM [1] | inhibition at 0.03 µM [2] | % Inhib CDK4/D @ 0.1 μM (test compound at 0.1 μM, 0.1 µM) | % Inhib CDK4/D @ 1 μM (test compound at 1 μM (head line shifted: 'mM' printed beside 'Structure'), 1 µM) | % Inhib CDK4/D @ 0.03 [2]
1 | CC(C)OC(=O)CSc1ccc(Nc2nc(N)c(C(=O)c3c(Cl)cccc3Cl)s2)cc1 [DD(23)] | 37% | 72.1% | 19% |  |  | 
2 | CC(C)=CCSc1ccc(Nc2nc(N)c(C(=O)c3c(Cl)cccc3Cl)s2)cc1 [DD(24)] | -3% | 42.5% | -17% |  |  | 
3 | CCCSc1ccc(Nc2nc(N)c(C(=O)c3c(Cl)cccc3Cl)s2)cc1 [DD(25)] | 0.4% | 65.5% | -10% |  |  | 
4 | COC(=O)CSc1ccc(Nc2nc(N)c(C(=O)c3c(Cl)cccc3Cl)s2)cc1 [DD(26)] | 65% | 87.5% | 9% |  |  | 
5 | CN1CCCC(CSc2ccc(Nc3nc(N)c(C(=O)c4c(Cl)cccc4Cl)s3)cc2)C1 (stereo not drawn) [DD(27)] | 10% | 58.7% | -2.6% |  |  | 
6 | NC(=O)CCSc1ccc(Nc2nc(N)c(C(=O)c3c(Cl)cccc3Cl)s2)cc1 [DD(28)] | 51% | 86.8% | 19% |  |  | 
7 | NC(=O)CCSc1ccc(Nc2nc(N)c(C(=O)c3c(Cl)cccc3Cl)s2)cc1 [DD(29)] |  |  |  | 50% | 87.2% | 24%
8 | CC(C)CCCSc1ccc(Nc2nc(N)c(C(=O)c3c(Cl)cccc3Cl)s2)cc1 [DD(30)] | 13% | 32.3% | 3.1% |  |  | 
9 | CC(C)CCOC(=O)CSc1ccc(Nc2nc(N)c(C(=O)c3c(Cl)cccc3Cl)s2)cc1 [DD(31)] | 30% | 59.7% | 15% |  |  | 
10 | CN(C)CCSc1ccc(Nc2nc(N)c(C(=O)c3c(Cl)cccc3Cl)s2)cc1 [DD(32)] | 14% | 61.3% | 5.5% |  |  | 
11 | CCOCCSc1ccc(Nc2nc(N)c(C(=O)c3c(Cl)cccc3Cl)s2)cc1 [DD(33)] | 21% | 64.7% | 8.1% |  |  | 
12 | Nc1nc(Nc2ccc(SCC(O)CO)cc2)sc1C(=O)c1c(Cl)cccc1Cl (stereo not drawn) [DD(34)] | 52% | 89.3% | 32% |  |  | 
13 | Nc1nc(Nc2ccc(SCc3ccncc3)cc2)sc1C(=O)c1c(Cl)cccc1Cl [DD(35)] | 42% | 76.8% | 12% |  |  | 
14 | CCC(CC)CSc1ccc(Nc2nc(N)c(C(=O)c3c(Cl)cccc3Cl)s2)cc1 [DD(36)] | 18% | 49.6% | 9% |  |  | 
15 | CC(=O)OCCSc1ccc(Nc2nc(N)c(C(=O)c3c(Cl)cccc3Cl)s2)cc1 [DD(37)] | 30% | 74.3% | 13% |  |  | 
16 | CC(C)OC(=O)CCSc1ccc(Nc2nc(N)c(C(=O)c3c(Cl)cccc3Cl)s2)cc1 [DD(38)] | 32% | 57.8% | 6.5% |  |  | 
17 | Nc1nc(Nc2ccc(SCCN3CCOCC3)cc2)sc1C(=O)c1c(Cl)cccc1Cl [DD(39)] | 18% | 68.4% | 0.2% |  |  | 
18 | CC(C)(CO)CSc1ccc(Nc2nc(N)c(C(=O)c3c(Cl)cccc3Cl)s2)cc1 [DD(40)] | 23% | 50.3% | -1.2% |  |  | 
19 | CCN(CC)C(=O)CSc1cccc(Nc2nc(N)c(C(=O)c3c(Cl)cccc3Cl)s2)c1 [DD(41)] | 33% | 70.3% | 28% |  |  | 
20 | Cc1noc(C)c1CSc1cccc(Nc2nc(N)c(C(=O)c3c(Cl)cccc3Cl)s2)c1 [DD(42)] | 41% | 63.7% | 29% |  |  | 
21 | CC(CSc1cccc(Nc2nc(N)c(C(=O)c3c(Cl)cccc3Cl)s2)c1)CN(C)C (stereo not drawn) [DD(43)] | 16% | 71.3% | 25% |  |  | 
22 | COC(=O)/C=C/CSc1cccc(Nc2nc(N)c(C(=O)c3c(Cl)cccc3Cl)s2)c1 [DD(44)] | 31% | 46% | 23% |  |  | 
23 | Nc1nc(Nc2cccc(SCCCO)c2)sc1C(=O)c1c(Cl)cccc1Cl [DD(45)] | 54% | 79.6% | 32% |  |  | 
24 | C=CCCSc1cccc(Nc2nc(N)c(C(=O)c3c(Cl)cccc3Cl)s2)c1 [DD(46)] | 39% | 50.7% | 18% |  |  | 
25 | Nc1nc(Nc2cccc(SCCN3CCCC3)c2)sc1C(=O)c1c(Cl)cccc1Cl [DD(47)] | 7.3% | 62.9% | 20% |  |  | 

Continued, values first:

Row | inhibition at 0.1 µM (test compound at 0.1 μM) | inhibition at 1 µM [1] | inhibition at 0.03 µM [2] | % Inhib CDK4/D @ 0.1 μM (test compound at 0.1 μM, 0.1 µM) | % Inhib CDK4/D @ 1 μM (test compound at 1 μM (head line shifted: 'mM' printed beside 'Structure'), 1 µM) | % Inhib CDK4/D @ 0.03 [2] | Compound
26 | 36% | 52.2% | 26% |  |  |  | Nc1nc(Nc2cccc(SCc3ncon3)c2)sc1C(=O)c1c(Cl)cccc1Cl [DD(48)]
27 | 19% | 54.2% | 12% |  |  |  | Nc1nc(Nc2cccc(SCC3CNC(=O)O3)c2)sc1C(=O)c1c(Cl)cccc1Cl (stereo not drawn) [DD(49)]
28 | 10% | 80.3% | 24% |  |  |  | CN(C)CCCSc1cccc(Nc2nc(N)c(C(=O)c3c(Cl)cccc3Cl)s2)c1 [DD(50)]
29 | 30% | 75.6% | 4.1% |  |  |  | Nc1nc(Nc2cccc(SCCN3CCCCC3)c2)sc1C(=O)c1c(Cl)cccc1Cl [DD(51)]
30 | 34% | 74.9% | 15% |  |  |  | Nc1nc(Nc2cccc(SCC3CO3)c2)sc1C(=O)c1c(Cl)cccc1Cl (stereo not drawn) [DD(52)]
31 | 14% | 31.5% | 5.6% |  |  |  | CC(C)CCSc1cccc(Nc2nc(N)c(C(=O)c3c(Cl)cccc3Cl)s2)c1 [DD(53)]
32 | 34% | 75.2% | 20% |  |  |  | COCCSc1cccc(Nc2nc(N)c(C(=O)c3c(Cl)cccc3Cl)s2)c1 [DD(54)]
33 | 24% | 63.4% | 17% |  |  |  | Nc1nc(Nc2cccc(SCC(=O)Nc3ccccc3)c2)sc1C(=O)c1c(Cl)cccc1Cl [DD(55)]
34 | 17% | 55.4% | 2.9% |  |  |  | Nc1nc(Nc2cccc(SCC3CC3)c2)sc1C(=O)c1c(Cl)cccc1Cl [DD(56)]
35 | -9% | 24.6% | -14% |  |  |  | COc1cccc(CSc2cccc(Nc3nc(N)c(C(=O)c4c(Cl)cccc4Cl)s3)c2)c1 [DD(57)]
36 | 23% | 72.7% | 11% |  |  |  | Nc1nc(Nc2cccc(SCC3CCCO3)c2)sc1C(=O)c1c(Cl)cccc1Cl (stereo not drawn) [DD(58)]
37 | 37% | 57.4% | 20% |  |  |  | CN1CCCC1CCSc1cccc(Nc2nc(N)c(C(=O)c3c(Cl)cccc3Cl)s2)c1 (stereo not drawn) [DD(59)]
38 | 39% | 80.1% | 22% |  |  |  | CC1(CSc2cccc(Nc3nc(N)c(C(=O)c4c(Cl)cccc4Cl)s3)c2)CO1 (stereo not drawn) [DD(60)]
39 | 57% | 81.5% | 20% |  |  |  | NC(=O)CSc1cccc(Nc2nc(N)c(C(=O)c3c(Cl)cccc3Cl)s2)c1 [DD(61)]
40 | 27% | 46.4% | 6.4% |  |  |  | CCOC(=O)CCSc1cccc(Nc2nc(N)c(C(=O)c3c(Cl)cccc3Cl)s2)c1 [DD(62)]
41 | 29% | 46.6% | -3.8% |  |  |  | CC(C)OC(=O)CSc1cccc(Nc2nc(N)c(C(=O)c3c(Cl)cccc3Cl)s2)c1 [DD(63)]
42 | 27% | 22.1% | -11% |  |  |  | CC(C)=CCSc1cccc(Nc2nc(N)c(C(=O)c3c(Cl)cccc3Cl)s2)c1 [DD(64)]
43 | 7% | 51.1% | 6.5% |  |  |  | CCCSc1cccc(Nc2nc(N)c(C(=O)c3c(Cl)cccc3Cl)s2)c1 [DD(65)]
